Measured values from patent US9085576B2 (AMGEN INC., priority 2013, dated 2015).

Legend:
[1] = target: Cathepsin D (Cat D) (Homo sapiens (Human), UniProt P07339); experiment: In vitro enzymatic Cathepsin D (Cat D) FRET assay; type: biochemical; conditions: read-out: CatD IC50
[2] = target: BACE (Homo sapiens (Human), UniProt P56817); experiment: In vitro BACE cell-based assay (Aβ40 in conditioned medium, sandwich ELISA)
[3] = target: Beta Secretase enzyme (BACE) (Homo sapiens (Human), UniProt P56817); experiment: In vitro enzymatic BACE FRET assay; type: biochemical; conditions: read-out: BACE1 Enzyme assay IC50
Sequence of Beta Secretase enzyme (BACE) (P56817 46-501): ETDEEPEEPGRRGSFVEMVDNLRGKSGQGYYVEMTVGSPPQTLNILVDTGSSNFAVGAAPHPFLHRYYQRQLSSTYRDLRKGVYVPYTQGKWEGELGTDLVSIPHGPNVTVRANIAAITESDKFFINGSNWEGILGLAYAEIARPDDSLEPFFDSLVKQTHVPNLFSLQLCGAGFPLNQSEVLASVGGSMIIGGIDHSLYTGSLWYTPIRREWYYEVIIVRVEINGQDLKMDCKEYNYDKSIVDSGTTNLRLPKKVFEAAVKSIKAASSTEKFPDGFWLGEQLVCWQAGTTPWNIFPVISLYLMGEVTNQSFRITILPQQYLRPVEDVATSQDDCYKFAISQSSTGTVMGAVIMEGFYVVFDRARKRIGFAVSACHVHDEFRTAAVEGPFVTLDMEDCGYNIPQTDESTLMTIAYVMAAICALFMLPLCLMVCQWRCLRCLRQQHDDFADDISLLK

Sequence of Cathepsin D (Cat D) (P07339 65-412, species assumed): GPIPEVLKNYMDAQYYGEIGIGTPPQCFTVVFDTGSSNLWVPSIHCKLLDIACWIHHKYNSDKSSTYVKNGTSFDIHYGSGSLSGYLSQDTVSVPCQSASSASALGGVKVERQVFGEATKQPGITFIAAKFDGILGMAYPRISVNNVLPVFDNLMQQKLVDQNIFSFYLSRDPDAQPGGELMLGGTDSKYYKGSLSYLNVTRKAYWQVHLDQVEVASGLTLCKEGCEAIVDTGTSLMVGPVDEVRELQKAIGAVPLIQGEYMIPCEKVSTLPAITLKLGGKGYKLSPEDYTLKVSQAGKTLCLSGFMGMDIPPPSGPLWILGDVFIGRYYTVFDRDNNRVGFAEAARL
Sequence of BACE (P56817 46-501, species assumed): as the sequence (P56817 46-501) above

| Structure (SMILES) | IC50 [1] [µM] | IC50 [2] [µM] | IC50 [3] [µM] |
| --- | --- | --- | --- |
| CC#CCOc1cnc(C(=O)Nc2cc(F)c(F)c(C3(CF)N=C(N)O[C@H]4C[C@H]43)c2)cn1 (stereo in doubt) [Example 36, N-(3-((1S,5S,6S)-3-amino-5-(fluoromethyl)-2-oxa-4-azabicyclo[4.1.0]hept-3-en-5-yl)-4,5-difluorophenyl)-5-(but-2-yn-1-yloxy)pyrazine-2-carboxamide] | 526 | 0.176 | 0.295 |
| NC1=N[C@@](c2cc(NC(=O)c3nn(C(F)F)cc3Cl)ccc2Cl)(C(F)F)[C@H]2C[C@H]2O1 [Example 224, N-(3-((1R,5S,6R)-3-amino-5-(difluoromethyl)-2-oxa-4-azabicyclo[4.1.0]hept-3-en-5-yl)-4-chlorophenyl)-4-chloro-1-(difluoromethyl)-1H-pyrazole-3-carboxamide] | 510 | 0.0252 | 0.0105 |
| CC#CCOc1cnc(C(=O)Nc2ccc(F)c([C@@]3(C)N=C(N)O[C@@H]4C[C@@H]43)c2)c(C)c1 [Example 56, N-(3-((1R,5S,6R)-3-amino-5-methyl-2-oxa-4-azabicyclo[4.1.0]hept-3-en-5-yl)-4-fluorophenyl)-5-(but-2-yn-1-yloxy)-3-methylpicolinamide] | 303 | 0.003 | 0.0129 |
| CC(C)n1cc(Cl)c(C(=O)Nc2ccc(F)c([C@@]3(C(F)F)N=C(N)O[C@@H]4C[C@@H]43)c2)n1 [Example 161, N-(3-((1R,5S,6R)-3-amino-5-(difluoromethyl)-2-oxa-4-azabicyclo[4.1.0]hept-3-en-5-yl)-4-fluorophenyl)-4-chloro-1-isopropyl-1H-pyrazole-3-carboxamide] | 295 | > 15.6 | > 40 |
| C[C@@]1(c2nc(NC(=O)c3ncc(Cl)cc3Cl)ccc2F)N=C(N)O[C@H]2C[C@H]21 [Example 329, N-(6-((1S,5R,6S)-3-amino-5-methyl-2-oxa-4-azabicyclo[4.1.0]hept-3-en-5-yl)-5-fluoropyridin-2-yl)-3,5-dichloropicolinamide] | 1610 | 9.6 | > 40 |
| NC1=N[C@@](c2cc(NC(=O)c3nn(C(F)F)cc3Cl)cc(F)c2F)(C(F)F)[C@H]2C[C@H]2O1 [Example 114, N-(3-((1R,5S,6R)-3-amino-5-(difluoromethyl)-2-oxa-4-azabicyclo[4.1.0]hept-3-en-5-yl)-4,5-difluorophenyl)-4-chloro-1-(difluoromethyl)-1H-pyrazole-3-carboxamide] | 158 | 0.0198 | 0.0098 |
| Cc1nc(C(=O)Nc2ccc(F)c([C@@]3(C(F)F)N=C(N)O[C@@H]4C[C@@H]43)c2)co1 [Example 166, N-(3-((1R,5S,6R)-3-amino-5-(difluoromethyl)-2-oxa-4-azabicyclo[4.1.0]hept-3-en-5-yl)-4-fluorophenyl)-2-methyloxazole-4-carboxamide] | 373 | 0.103 | 0.0613 |
| NC1=N[C@@](c2cc(NC(=O)c3ccc(-c4ccccc4)cn3)ccc2F)(C(F)F)[C@H]2C[C@H]2O1 [Example 291, N-(3-((1R,5S,6R)-3-amino-5-(difluoromethyl)-2-oxa-4-azabicyclo[4.1.0]hept-3-en-5-yl)-4-fluorophenyl)-5-phenylpicolinamide] | 148 | 1.87 | 1.15 |
| CN(C)c1cc(C#N)cnc1C(=O)Nc1ccc(F)c([C@@]2(C(F)F)N=C(N)O[C@@H]3C[C@@H]32)c1 [Example 389, N-(3-((1R,5S,6R)-3-amino-5-(difluoromethyl)-2-oxa-4-azabicyclo[4.1.0]hept-3-en-5-yl)-4-fluorophenyl)-5-cyano-3-(dimethylamino)picolinamide] | 732 | 0.0747 | 0.0915 |
| COc1cnc(C(=O)Nc2cc(Cl)c(F)c([C@@]3(CF)N=C(N)O[C@@H]4C[C@@H]43)c2)c(C)n1 [Example 89, N-(3-((1R,5S,6R)-3-amino-5-(fluoromethyl)-2-oxa-4-azabicyclo[4.1.0]hept-3-en-5-yl)-5-chloro-4-fluorophenyl)-5-methoxy-3-methylpyrazine-2-carboxamide] | 574 | 0.0245 | 0.0731 |
| NC1=N[C@](CF)(c2cc(NC(=O)c3ccc(Cl)cn3)cnc2F)[C@H]2C[C@H]2O1 [Example 231, N-(5-((1R,5S,6R)-3-amino-5-(fluoromethyl)-2-oxa-4-azabicyclo[4.1.0]hept-3-en-5-yl)-6-fluoropyridin-3-yl)-5-chloropicolinamide] | 390 | 0.0277 | 0.165 |
| NC1=N[C@@](c2cc(NC(=O)c3ccc(OCC#CC4CC4)cn3)ccc2F)(C(F)F)[C@H]2C[C@H]2O1 [Example 250, N-(3-((1R,5S,6R)-3-amino-5-(difluoromethyl)-2-oxa-4-azabicyclo[4.1.0]hept-3-en-5-yl)-4-fluorophenyl)-5-((3-cyclopropylprop-2-yn-1-yl)oxy)picolinamide] | 77.5 | 0.603 | 0.0218 |
| N#Cc1cnc(C(=O)Nc2ccc(Cl)c([C@@]3(CF)N=C(N)O[C@@H]4C[C@@H]43)c2)c(F)c1 [Example 450, N-(3-((1R,5S,6R)-3-amino-5-(fluoromethyl)-2-oxa-4-azabicyclo[4.1.0]hept-3-en-5-yl)-4-chlorophenyl)-5-cyano-3-fluoropicolinamide] | > 400 | 0.00817 | 0.0503 |
| COCCC(=O)Nc1ccc(F)c([C@@]2(C(F)F)N=C(N)O[C@@H]3C[C@@H]32)c1 [Example 247, N-(3-((1R,5S,6R)-3-amino-5-(difluoromethyl)-2-oxa-4-azabicyclo[4.1.0]hept-3-en-5-yl)-4-fluorophenyl)-3-methoxypropanamide] | 486 | 4.34 | 25.5 |
| CC#Cc1cncc(-c2ccc(F)c([C@]3(C(F)F)N=C(N)O[C@H]4C[C@H]43)c2)c1 [Example 430] | 1020 | > 15.6 | > 40 |
| COc1cnc(C(=O)Nc2cc(C)c(F)c([C@@]3(C(F)F)N=C(N)O[C@@H]4C[C@@H]43)c2)c(C)n1 [Example 300, N-(3-((1R,5S,6R)-3-amino-5-(difluoromethyl)-2-oxa-4-azabicyclo[4.1.0]hept-3-en-5-yl)-4-fluoro-5-methylphenyl)-5-methoxy-3-methylpyrazine-2-carboxamide] | 447 | 0.0405 | 0.142 |
| NC1=N[C@@](c2cc(Nc3ncnc4cc(Cl)cnc34)ccc2F)(C(F)F)[C@H]2C[C@H]2O1 [Example 353, (1R,5S,6R)-5-(5-((7-chloropyrido[3,2-d]pyrimidin-4-yl)amino)-2-fluorophenyl)-5-(difluoromethyl)-2-oxa-4-azabicyclo[4.1.0]hept-3-en-3-amine] | 141 | 0.0503 | 0.0639 |
| Cc1nc(OCC(F)(F)F)cnc1C(=O)Nc1cc(F)c(Cl)c([C@]2(CF)N=C(N)O[C@H]3C[C@H]32)c1 [Example 316, N-(3-((1S,5R,6S)-3-amino-5-(fluoromethyl)-2-oxa-4-azabicyclo[4.1.0]hept-3-en-5-yl)-4-chloro-5-fluorophenyl)-3-methyl-5-(2,2,2-trifluoroethoxy)pyrazine-2-carboxamide] | 1080 | > 15.6 | > 40 |
| CC(C)c1cc(Cl)cnc1C(=O)Nc1ccc(F)c([C@@]2(C(F)F)N=C(N)O[C@@H]3C[C@@H]32)c1 [Example 289, N-(3-((1R,5S,6R)-3-amino-5-(difluoromethyl)-2-oxa-4-azabicyclo[4.1.0]hept-3-en-5-yl)-4-fluorophenyl)-5-chloro-3-isopropylpicolinamide] | 700 | 0.116 | 0.305 |
| COc1ccc(C(=O)Nc2ccc(F)c([C@@]3(CF)N=C(N)O[C@@H]4C[C@@H]43)c2)nc1 [Example 195, N-(3-((1R,5S,6R)-3-amino-5-(fluoromethyl)-2-oxa-4-azabicyclo[4.1.0]hept-3-en-5-yl)-4-fluorophenyl)-5-methoxypicolinamide] | 759 | 0.0156 | 0.124 |
| NC1=N[C@](CF)(c2cc(Nc3nccc4cc(Cl)cnc34)cc(F)c2F)[C@H]2C[C@H]2O1 [Example 342, (1R,5S,6R)-5-(5-((3-chloro-1,7-naphthyridin-8-yl)amino)-2,3-difluorophenyl)-5-(fluoromethyl)-2-oxa-4-azabicyclo[4.1.0]hept-3-en-3-amine] | 50.6 | 0.12 | 0.0598 |
| NC1=N[C@@](c2cc(Nc3nccc4cc(C#CC5CC5)cnc34)ccc2F)(C(F)F)[C@H]2C[C@H]2O1 [Example 406, (1R,5S,6R)-5-(5-((3-(cyclopropylethynyl)-1,7-naphthyridin-8-yl)amino)-2-fluorophenyl)-5-(difluoromethyl)-2-oxa-4-azabicyclo[4.1.0]hept-3-en-3-amine] | 8910 | 0.861 | 0.0759 |
| CC(C)Oc1cnc(C(=O)Nc2ccc(F)c([C@@]3(C(F)F)N=C(N)O[C@@H]4C[C@@H]43)c2)cn1 [Example 147, N-(3-((1R,5S,6R)-3-amino-5-(difluoromethyl)-2-oxa-4-azabicyclo[4.1.0]hept-3-en-5-yl)-4-fluorophenyl)-5-isopropoxypyrazine-2-carboxamide] | 706 | 1 | 0.732 |
| COc1cnc(C(=O)Nc2ccc(Cl)c([C@@]3(CF)N=C(N)O[C@@H]4C[C@@H]43)c2)c(C)n1 [Example 301, N-(3-((1R,5S,6R)-3-amino-5-(fluoromethyl)-2-oxa-4-azabicyclo[4.1.0]hept-3-en-5-yl)-4-chlorophenyl)-5-methoxy-3-methylpyrazine-2-carboxamide] | 715 | 0.031 | 0.352 |
| NC1=N[C@](CF)(c2cc(NC(=O)c3ccc(F)cn3)ccc2Cl)[C@H]2C[C@H]2O1 [Example 445, N-(3-((1R,5S,6R)-3-amino-5-(fluoromethyl)-2-oxa-4-azabicyclo[4.1.0]hept-3-en-5-yl)-4-chlorophenyl)-5-fluoropicolinamide] | 1270 | 0.031 | 0.29 |
